The record followed here is patent US20260085101A1, “NOVEL PLATELET DERIVED GROWTH FACTOR PEPTIDE MIMETIC” (THE UNIVERSITY OF SYDNEY, priority 2022, published 2026).

The test system of experiment [1] is C2C12 mouse myoblasts. The experiment can be described thus: Scratch migration (chemotaxis) assay on C2C12 cells. The experiment is classed as cell-based. The note with it: for migration of cells across the scratch: 24 hours at 37° C., 10 ng/ml PDGF, 1 μg/ml peptides, mean (±SD); for increase in migration compared to the negative control (Mean Diff) / increase in migration compared to the no treatment control (Mean Diff.): 24 hours; for increase in migration compared to the negative control (Mean Diff): vs AG1296+PDGF−AB negative control; for increase in migration compared to the no treatment control (Mean Diff.): vs no treatment control. As for the experimental part:
FIG. 2. Migration of C2C12 Mouse […] Cells Treated with PDGF and peptides JC5 and JC5a. C2C12 mouse fibroblast cells migrate across the scratch over 24 hours. Cells were treated with 10 ng/ml PDGF−AB (n=6), PDGF−BB (n=6), and 1 μg/ml of novel PDGF mimetic JC5 (n=6) and JC5a (n=3). […] There was also no statistically significant difference between the PDGF mimetic peptides and PDGF−AB and −BB positive controls. Error bars represent ±SD. The function of Compounds Ia (also referred to herein as JC5) and Ib (also referred to herein as JC5a) has been tested in vitro on the continuous cell line, C2C12 mouse myoblasts. In these in vitro assays recombinant PDGF−AB and −BB have been used as positive controls along with a serum starved no treatment control and the PDGF receptor inhibitor AG1296 co-treated with PDGF−AB as a negative control. The in vitro assays were designed to assess the major known functions of PDGF whilst also considering functions that are relevant to its in vivo applications. These functions were chemotaxis, collagen contraction, vascular tube formation and activation of the PDGF receptors via phosphorylation of Akt and Erk. Chemotaxis was assessed by making a scratch through a 2D culture of C2C12 cells following treatment with the four controls and the peptides JC5 and JC5a. They were then incubated for 24 hours at 37° C. Migration of the cells across the scratch at the conclusion of the incubation was measured and compared to the relevant controls described above. PDGF is a well-established mediator of chemotaxis and is expected to increase migration of the cells across the scratch over the course of 24 hours post treatment.

The test system of experiment [2] is C57BL6/J mice. The experiment can be described thus: Murine model of acute myocardial infarction (permanent LAD occlusion), echocardiography and heart weight/tibia length. Type of experiment: in vivo, mouse. The note with it: for average day 2 to day 28 Δ ejection fraction: change from day 2 to day 28; for day 28 ejection fraction / decrease in ESV versus PBS (MI) cohort (mean diff.) / mean heart weight/tibia length / mean end systolic volume (ESV) at day 28 / mean end diastolic volume (EDV) at day 28: mice; for day 28 ejection fraction: 28 days post MI, 60 μg/kg PDGF−AB or 32.50 mg/kg peptide via implanted minipump, mean (±SD), PBS 26.89%; for decrease in ESV versus PBS (MI) cohort (mean diff.) / mean heart weight/tibia length / mean end systolic volume (ESV) at day 28 / mean end diastolic volume (EDV) at day 28: day 28 post MI; for mean heart weight/tibia length: PBS 0.01913; for mean end systolic volume (ESV) at day 28 / mean end diastolic volume (EDV) at day 28: minipump; for mean end systolic volume (ESV) at day 28: PBS 116.6 μL; for mean end diastolic volume (EDV) at day 28: PBS 155.9 μL. From the text: FIG. 9: Improved Cardiac function at Day 28 Post Myocardial Infarction. […] C) A decrease in end diastolic volumes was also observed in PDGF−AB (p=0.0016) and JC5 (p=0.0185) treated mice versus PBS. […] E) Timeline of mean EF per treatment group. Baseline indicates the pre-infarct EF per group. Day 2 and day 28 indicates days post infarct. A-C) Error bars represent ±SD. D) Data presented as median ±minimum and maximum values. One way ANOVA comparing all groups to the PBS vehicle control group (n=10/11).
FIG. 11: Decreased Heart Weight/Tibia Length in Mice Treated with JC5. […] Error bars represent ±SD.
Cardiac function was monitored using echocardiography with a post MI baseline at day 2 and a day 28 end point followed by tissue collection and calculation of heart weight divided by tibia length. Mice were randomised into treatment groups receiving either 60 μg/kg of the positive control recombinant human PDGF−AB, 32.50 mg/kg of novel mimetic peptide JC5, 32.50 mg/kg of novel mimetic peptide JC5a, or phosphate buffered saline (PBS) as a vehicle control, via implanted minipump, at the time of infarction. In addition to this sham controls were included using non-infarcted healthy mice receiving either 32.50 mg/kg of novel mimetic peptide JC5 or 32.50 mg/kg of novel mimetic peptide JC5a.
Left ventricular ejection fraction (LVEF) is directly proportionate to the difference between left ventricle end diastolic volume and the left ventricular end systolic volume (LVEDV-LVESV) and inversely proportionate to left ventricular end diastolic volume (LVEDV). The value is created by the following equation LVEF=(LVEDV-LVESV)/LVEDV. Increased end diastolic volume (EDV) indicates possible dilation of the ventricle whilst increased end systolic volume (ESV) indicates a possible decrease in contractile function. In mice treated with positive control PDGF−AB (MI) and novel mimetic peptide JC5 (MI) there was a significant decrease in both ESV and EDV at day 28 when compared to the vehicle control, PBS (MI), cohort. The decreased ESV of the PDGF−AB (MI) cohort at day 28 aligned with what was expected of the positive control with a mean ESV of 55.04 μL (±23.66), […] (mean diff.) less than the PBS (MI) cohort (p=0.0003). […] These were both a significant decrease from the PBS (MI) cohort with a mean EDV of 155.9 μL (±47.15) (JC5 p=0.0185, PDGF−AB p=0.0016).

Experiment [3] relates to primary human coronary artery endothelial cells (HCAECs). The experiment can be described thus: Vascular tube forming assay on Geltrex. The experiment is classed as cell-based. Conditions: 24 hours; for tube length: 50 ng/ml PDGF, 5 μg/ml JC5, 10 μM AG1296, mean (±SD); for increased tube length compared to the negative control (Mean Diff.): vs AG1296+PDGF−AB (307.7 μm); for increased tube length compared to the no treatment control (Mean Diff.): vs no treatment control (305 μm). On the procedure:
FIG. 4. Tube formation of Human Coronary Artery Endothelial Cells Treated with PDGF and PDGF Mimetic Peptide JC5. Human coronary artery endothelial cells treated with 50 ng/ml of PDGF−AB and PDGF−BB produced longer tubes than untreated cells and cells treated with the PDGF receptor inhibitor AG1296+PDGF−AB. […] Error bars represent ±SD, n=3/group.
PDGF has a well-established role in angiogenesis in vivo. To simulate this function in vitro a vascular tube forming assay on primary human coronary artery endothelial cells (HCAECs) was carried out. Cells were seeded on top of 3D growth factor reduced Geltrex basement membrane extract and incubated for 24 hours following treatment with the PDGF−AB, PDGF-BB, no treatment control, AG1296+PDGF−AB negative control, and peptides JC5 and JC5a. Over the course of 24 hours the cells form tubes throughout the gel. PDGF is reported to facilitate tube formation of endothelial cells in in vitro 3D assays.
Cells treated with 50 ng/ml of PDGF−AB, PDGF-BB, and 5 μg/ml of JC5 produced longer more uniform tubes than untreated cells and cells treated with the negative control 10 μM PDGF receptor inhibitor AG1296 co-treated with 50 ng/ml PDGF−AB (FIG. 4). The positive controls PDGF−AB and PDGF−BB produced tubes that were 560.7 μm (±53.93) and 616.3 μm (±39.07), respectively. […] The no treatment control and AG1296+PDGF−AB negative control produced tubes that were 305 μm and 307.7 μm, respectively. […] In summary, JC5 has similar vascular tube forming ability to recombinant human PDGF−AB and PDGF-BB.

As to `CCCCCCCCCCCCCCCC(=O)NCCCC[C@H](NC(=O)[C@H](CCC(=O)O)NC(=O)[C@H](Cc1ccc(O)cc1)NC(=O)[C@@H](CCC(=O)O)NC(=O)CCOCCOCCOCCNC(=O)CCOCCOCCOCCNC(=O)[C@@H](CCCCN)NC(=O)[C@@H](CCCCN)NC(=O)[C@@H](CCCNC(=N)N)NC(=O)[C@@H](NC(=O)[C@@H](NC(=O)[C@H](CCC(=O)O)NC(=O)[C@@H](NC(=O)[C@H](CCCCN)NC(=O)[C@@H](CCCNC(=N)N)NC(=O)[C@H](NC(=O)[C@H](N)CSSC[C@@H](N)C(=O)N[C@@H](C(=O)N[C@H](CCCNC(=N)N)C(=O)N[C@@H](CCCCN)C(=O)N[C@H](C(=O)N[C@@H](CCC(=O)O)C(=O)N[C@H](C(=O)N[C@H](C(=O)N[C@H](CCCNC(=N)N)C(=O)N[C@H](CCCCN)C(=O)N[C@H](CCCCN)C(=O)NCCOCCOCCOCCC(=O)NCCOCCOCCOCCC(=O)N[C@H](CCC(=O)O)C(=O)N[C@@H](Cc1ccc(O)cc1)C(=O)N[C@@H](CCC(=O)O)C(=O)N[C@@H](CCCCNC(=O)CCCCCCCCCCCCCCC)C(=O)N[C@@H](CCC(=O)O)C(=O)N[C@@H](Cc1ccc(O)cc1)C(=O)N[C@@H](CCC(=O)O)C(N)=O)C(C)C)[C@H](C)CC)[C@@H](C)CC)C(C)C)C(C)C)[C@@H](C)CC)[C@H](C)CC)C(C)C)C(=O)N[C@@H](CCC(=O)O)C(=O)N[C@@H](Cc1ccc(O)cc1)C(=O)N[C@@H](CCC(=O)O)C(N)=O` [JC5a, PDGF Loop III dimer USA dimer (CVRKIEIVRKK)2(Peg3)2(EYEK(Palm)EYE)2-C′], in experiment [1], the “migration of cells across the scratch” value was found to be 79.88%, the “increase in migration compared to the negative control (Mean Diff)” value stood at 62.71% and the “increase in migration compared to the no treatment control (Mean Diff.)” value came to 59.56%. Also, the “average day 2 to day 28 Δ ejection fraction” value in experiment [2] (mice post MI) came out at 10.82%. Also, the “day 2 to day 28 change in ejection fraction greater than PBS (MI) (mean diff.)” value in experiment [2] (mice post MI, vs PBS vehicle control) was found to be 18.02%. Moreover, the “day 28 ejection fraction” value in experiment [2] turned out to be 39.24%.

In the case of “PDGF Loop III dimer HSA (CVRKIEIVRKK)2(Peg3)2EYEK(Palm)EYE-C′ [JC5]”, in experiment [1], the “migration of cells across the scratch” value was determined as 68.28%, the “increase in migration compared to the negative control (Mean Diff)” value is recorded as 51.71% and the “increase in migration compared to the no treatment control (Mean Diff.)” value is listed as 47.96%. In experiment [3], the tube length is 591.3 μm, the “increased tube length compared to the negative control (Mean Diff.)” value was found to be 283.7 μm and the “increased tube length compared to the no treatment control (Mean Diff.)” value is listed as 286.3 μm. The “average day 2 to day 28 Δ ejection fraction” value in experiment [2] (mice post MI) is on record as 6.686%. In experiment [2], the “day 28 ejection fraction” value worked out at 42.06%, the “decrease in ESV versus PBS (MI) cohort (mean diff.)” value stood at 49.58 µL, the “mean heart weight/tibia length” value amounted to 0.01462 and the “mean end systolic volume (ESV) at day 28” value is 67.01 µL. Also, in experiment [2], the “mean end diastolic volume (EDV) at day 28” value was found to be 108.6 µL.

With “PDGF−AB: recombinant human PDGF−AB, AB heterodimer of recombinant PDGF, positive control”, in experiment [3], the tube length worked out at 560.7 μm, the “increased tube length compared to the negative control (Mean Diff.)” value came to 253 μm and the “increased tube length compared to the no treatment control (Mean Diff.)” value is recorded as 255.7 μm. Besides, the “average day 2 to day 28 Δ ejection fraction” value in experiment [2] (mice post MI) came to 7.104%. Further, in experiment [2], the “day 28 ejection fraction” value is reported as 43.44%, the “decrease in ESV versus PBS (MI) cohort (mean diff.)” value amounted to 61.54 µL, the “mean heart weight/tibia length” value worked out at 0.01344 and the “mean end systolic volume (ESV) at day 28” value was determined as 55.04 µL. Also, in experiment [2], the “mean end diastolic volume (EDV) at day 28” value is 93.75 µL.
